Assay results as given in patent US20200163984A1, “USE OF ISOVALERYL SPIRAMYCIN I, II AND/OR III IN MANUFACTURING MEDICAMENT FOR TREATING AND/OR PREVENTING TUMOR, AND MEDICAMENT” (SHENYANG FUYANG PHARMACEUTICAL TECHNOLOGY CO., LTD., priority 2017, published 2020).
Where two headings read alike, the source gives them in different places.

How the values were obtained:
[1] = tested on: transplanted tumor of human bladder cancer cell T-24; experiment: T-24 transplanted tumor in nude mice; conditions: for Tumor Volume (mm3) (d30): d 30
Method: (§1) Then cell concentration was adjusted to 1×10^7/ml with matrigel, then each nude mouse was inoculated subcutaneously with 0.2 ml of cells at its right armpit and recorded as the first day of inoculation. When the tumor grows to be greater than or equal to 100 mm^3, the mice were randomly divided into 11 groups with 6 mice in each group: isovaleryl spiramycin I groups with doses of 25, 50 and 100 mg/kg, isovaleryl spiramycin II groups with doses of 25, 50 and 100 mg/kg, and isovaleryl spiramycin III groups with doses of 25, 50 and 100 mg/kg. Each group was continuously administered intragastrically for 30 days with a dose of 20 ml/kg. The mice were sacrificed the next day after drug withdrawal and the indicators were tested. The long diameter and short diameter of the tumor, and the body weight of each mouse were recorded every 3 days from drug administration to nude mouse sacrifice.
(§2) The body weight of the nude mice and the long diameter (a) and short diameter (b) of the transplanted tumor were measured every 3 days, and the tumor volume (v), relative tumor volume (RTV) and relative tumor proliferation rate (T/C) are calculated respectively according to the following formulas, wherein V=a×b^2/2; RTV=V/V0 (V0 is the tumor volume before administration, V is the tumor volume before sacrifice), and T/C (%)=treatment group RTV/model control group RTV×100%.
(§3) Each mouse was weighed and sacrificed. After the tumor was completely stripped off from the body of the mouse, the non-tumor tissues such as blood stains and fat were removed to weigh the tumor and calculate the tumor growth inhibition rate. The average tumor weight of each group of mice is used as an indicator of efficacy. Tumor growth inhibition rate (%)=(1−the average tumor weight of the treatment group/the average tumor weight of the model group)×100%.

[2] = tested on: transplanted tumor of human glioblastoma cell A172; conditions: for Tumor Volume (mm3) (d 1): d1
Method: as §1, with “a model group, a temozolomide group, […], […], […]” for “isovaleryl spiramycin I groups with doses of 25, 50 and 100 mg/kg, isovaleryl spiramycin II groups with doses of 25, 50 and 100 mg/kg, and isovaleryl spiramycin III groups with doses of 25, 50 and 100 mg/kg.”
as §2, §3

[3] = T-24, high dose (100 mg/kg in method) i.g. 30 days
[4] = T-24, low dose (25 mg/kg in method) i.g. 30 days
[5] = T-24, medium dose (50 mg/kg in method) i.g. 30 days
[6] = A172, high dose (100 mg/kg in method) i.g. 30 days
[7] = A172, low dose (25 mg/kg in method) i.g. 30 days
[8] = A172, medium dose (50 mg/kg in method) i.g. 30 days

COC1C(OC(C)=O)CC(=O)OC(C)CC=CC=CC(OC2CCC(N(C)C)C(C)O2)C(C)CC(CC=O)C1OC1OC(C)C(OC2CC(C)(O)C(OC(=O)CC(C)C)C(C)O2)C(N(C)C)C1O (stereo not shown) [Isovaleryl spiramycin II, isovaleryl spiramycin II]
Relative Tumor Proliferation Rate (T/C) [1, 3]: 46.70% | tumor growth inhibition rate [1, 3]: 59.25% | Relative Tumor Proliferation Rate (T/C) [1, 4]: 81.39% | tumor growth inhibition rate [1, 4]: 15.57% | tumor volume and relative tumor volume compared with the model group ([1]; T-24, low, medium and high doses, P<0.05): significantly lower | Relative Tumor Proliferation Rate (T/C) [1, 5]: 64.89% | tumor growth inhibition rate [1, 5]: 41.99% | Inhibition Rate (%) ([1]; dose 25 mg/kg): 15.57% | Relative Tumor Proliferation Rate (T/C) ([1]; dose 25 mg/kg): 81.39% | Relative Tumor Volume (RTV) ([1]; dose 25 mg/kg): 10.75 ± 1.34 | Tumor Weight ([1]; dose 25 mg/kg): 1.58 ± 0.28 g | Tumor Volume (mm3) (d 1) ([1]; dose 25 mg/kg): 132.64 ± 19.75 mm3 | Tumor Volume (mm3) (d30) ([1]; dose 25 mg/kg): 1414.36 ± 188.91 mm3 | Inhibition Rate (%) ([1]; dose 50 mg/kg): 41.99% | Relative Tumor Proliferation Rate (T/C) ([1]; dose 50 mg/kg): 64.89% | Relative Tumor Volume (RTV) ([1]; dose 50 mg/kg): 8.57 ± 1.31 | Tumor Weight ([1]; dose 50 mg/kg): 1.09 ± 0.42 g | Tumor Volume (mm3) (d 1) ([1]; dose 50 mg/kg): 133.67 ± 5.07 mm3 | Tumor Volume (mm3) (d30) ([1]; dose 50 mg/kg): 1142.42 ± 146.91 mm3 | Inhibition Rate (%) ([1]; dose 100 mg/kg): 59.25% | Relative Tumor Proliferation Rate (T/C) ([1]; dose 100 mg/kg): 46.70% | Relative Tumor Volume (RTV) ([1]; dose 100 mg/kg): 6.17 ± 1.26 | Tumor Weight ([1]; dose 100 mg/kg): 0.76 ± 0.19 g | Tumor Volume (mm3) (d 1) ([1]; dose 100 mg/kg): 133.57 ± 18.08 mm3 | Tumor Volume (mm3) (d30) ([1]; dose 100 mg/kg): 809.94 ± 131.43 mm3 | mouse weight compared with the model group ([1]; mouse, in vivo): no significant changes | Body Weight (g) (d1) ([1]; mouse, in vivo, 25 mg/kg): 19.91 ± 0.28 g | Body Weight (g) (d30) ([1]; mouse, in vivo, 25 mg/kg): 24.81 ± 2.42 g | Body Weight (g) (d1) ([1]; mouse, in vivo, 50 mg/kg): 19.74 ± 0.82 g | Body Weight (g) (d30) ([1]; mouse, in vivo, 50 mg/kg): 25.84 ± 0.73 g | Body Weight (g) (d1) ([1]; mouse, in vivo, 100 mg/kg): 19.51 ± 0.50 g | Body Weight (g) (d30) ([1]; mouse, in vivo, 100 mg/kg): 25.92 ± 1.35 g | Relative Tumor Proliferation Rate (T/C) [2, 6]: 42.18% | tumor growth inhibition rate [2, 6]: 40.01% | Relative Tumor Proliferation Rate (T/C) [2, 7]: 74.24% | tumor growth inhibition rate [2, 7]: 10.85% | tumor volume and relative tumor volume compared with the model group ([2]; A172, low, medium and high doses, P<0.05): significantly lower | Relative Tumor Proliferation Rate (T/C) [2, 8]: 50.59% | tumor growth inhibition rate [2, 8]: 15.71% | Inhibition Rate (%) ([2]; A172 nude mice, 12.5 mg/kg): 10.85% | Relative Tumor Proliferation Rate (T/C) ([2]; A172 nude mice, 12.5 mg/kg): 74.24% | Relative Tumor Volume (RTV) ([2]; A172 nude mice, 12.5 mg/kg): 14.73 ± 1.33 | Tumor Weight ([2]; A172 nude mice, 12.5 mg/kg): 1.24 ± 0.12 g | Tumor Volume (mm3) (d 1) ([2]; A172 nude mice, 12.5 mg/kg): 123.39 ± 11.22 mm3 | Tumor Volume (mm3) (d30) ([2]; A172 nude mice, 12.5 mg/kg): 1525.41 ± 255.74 mm3 | Inhibition Rate (%) ([2]; A172 nude mice, 25 mg/kg): 15.71% | Relative Tumor Proliferation Rate (T/C) ([2]; A172 nude mice, 25 mg/kg): 50.59% | Relative Tumor Volume (RTV) ([2]; A172 nude mice, 25 mg/kg): 14.31 ± 0.98 | Tumor Weight ([2]; A172 nude mice, 25 mg/kg): 1.17 ± 0.10 g | Tumor Volume (mm3) (d 1) ([2]; A172 nude mice, 25 mg/kg): 115.96 ± 11.42 mm3 | Tumor Volume (mm3) (d30) ([2]; A172 nude mice, 25 mg/kg): 984.26 ± 197.97 mm3 | Inhibition Rate (%) ([2]; A172 nude mice, 50 mg/kg): 40.01% | Relative Tumor Proliferation Rate (T/C) ([2]; A172 nude mice, 50 mg/kg): 42.18% | Relative Tumor Volume (RTV) ([2]; A172 nude mice, 50 mg/kg): 12.88 ± 1.54 | Tumor Weight ([2]; A172 nude mice, 50 mg/kg): 0.84 ± 0.12 g | Tumor Volume (mm3) (d 1) ([2]; A172 nude mice, 50 mg/kg): 120.28 ± 10.53 mm3 | Tumor Volume (mm3) (d30) ([2]; A172 nude mice, 50 mg/kg): 851.14 ± 215.31 mm3 | mouse weight compared with the model group ([2]; mouse, in vivo): no significant changes | Body Weight (g) (d1) ([2]; mouse, in vivo, 12.5 mg/kg): 21.36 ± 0.67 g | Body Weight (g) (d30) ([2]; mouse, in vivo, 12.5 mg/kg): 21.36 ± 0.87 g | Body Weight (g) (d1) ([2]; mouse, in vivo, 25 mg/kg): 21.10 ± 0.62 g | Body Weight (g) (d30) ([2]; mouse, in vivo, 25 mg/kg): 21.30 ± 0.89 g | Body Weight (g) (d1) ([2]; mouse, in vivo, 50 mg/kg): 21.08 ± 0.74 g | Body Weight (g) (d30) ([2]; mouse, in vivo, 50 mg/kg): 20.97 ± 0.68 g
